{
  "source": "patent US4166125A",
  "about": "“2-Oxo-phenylbutanoic acid derivatives” (Grelan Pharmaceutical Co., Ltd., priority 1977, dated 1979)",
  "key": {"[1]": {"test_system": "pain threshold of hind paws (Brewer's yeast)", "assay": "Analgesic activity, Randall and Selitto method (oral administration)", "format": "in vivo, rat (Sprague-Dawley strain)", "description": "Randall and Selitto method\nAccording to a method conforming to Randall, L. O. and Selitto, J. J. [Archives Internationales de Pharmacodynamie et de Therapie, 111, 409, (1957)], 0.1 ml of 10% Brewer's yeast suspension in physiological saline was injected subcutaneously into the plantar surface of the right hind paws of 5 male rats in each group (Sprague-Dawley strain) weighing 90 to 110 g. 2 Hours after administration of the yeast suspension, each test compound suspended in 0.3% CMC-Na solution was orally administered to the rats in an amount of 1.0 ml per 100 g of body weight of the rat. 30 Minutes, 60 minutes and 120 minutes after administration of the test compounds, threshold values of left and right hind paws of the rats were measured by an electric pressure device made by Daiwa Kinzoku Co., Ltd. (Japan). The change of threshold was obtained by comparing the pain threshold obtained in a group after the yeast injection with that obtained before the yeast injection, in the same group as above. Increasing percent of pain threshold of the test compound was calculated on the basis of the mean changes of threshold of the test group and of that of the control group. Rats of the control group were administered orally only 0.3% CMC-Na solution.\nAccording to the Litchfield-Wilcoxon method [The Journal of Pharmacology and Experimental Therapeutics, 96, 96, (1949)], ED50 value was calculated as follows on the basis of the increasing percent of pain threshold;"}, "[2]": {"test_system": "febrile body temperature (Brewer's yeast)", "assay": "Antipyretic activity (oral administration)", "format": "in vivo, rat (Sprague-Dawley strain)", "conditions": "250 mg/Kg oral", "description": "Antipyretic activity (oral administration)\nAccording to a method conforming to Winter, C. A. et al [The Journal of Pharmacology and Experimental Therapeutics 133, 117, (1961)], 20% Brewer's yeast suspension in physiological saline was injected subcutaneously to 5 male rats in each group (Sprague-Dawley strain) weighing 200 to 250 g in an amount of 1.0 ml per 100 g of body weight of the rat. After fasting for 18 hours, each test compound suspended in 1% gum arabic solution was administered orally to the rats in an amount of 1.0 ml per 100 g of body weight. Then, the rectal temperature of the rats was taken."}, "[3]": {"assay": "Acute toxicity (1) (oral administration)", "format": "in vivo", "conditions": "in vivo; mouse, oral, 7 days", "description": "(§1) After administration of the compound, the number of mice that died during 7 days was observed, and LD50 value was calculated on the basis of the mortality."}, "mice": {"test_system": "mice", "assay": "Acute toxicity (1) (oral administration)", "format": "in vivo", "conditions": "mice", "description": "as §1"}, "[4]": {"assay": "Acute toxicity (2) (oral administration)", "format": "in vivo", "conditions": "in vivo; rat, oral, 7 days", "description": "(§2) After administration of the compound, the number of rats that died during 7 days was observed, and LD50 value was calculated on the basis of the mortality."}, "rats": {"test_system": "rats", "assay": "Acute toxicity (2) (oral administration)", "format": "in vivo", "conditions": "rats", "description": "as §2"}, "gastric mucosa [5]": {"test_system": "gastric mucosa", "assay": "Effect on gastric mucosa (1) (oral administration)", "format": "in vivo, mouse (ddY-strain)", "set-up": "unit not given here", "conditions": "mice, 4 hours", "description": "4 Hours after the administration, the mouse was sacrificed with ether, and its stomach was removed. The stomach was treated with 5% formalin for 3 minutes, and gastric mucosa was observed under a stereoscopic microscope. When gastric lesion in the mucosa was found, the length of each lesion was measured. Degree of gastric damage (i.e. GD50)* was calculated on the basis of the length of the lesion of each mouse.\nRemark *: GD50 : The value corresponding to the relative frequency of 50% on the normal probability paper plotted the length of gastric lesions of each mouse."}, "gastric mucosa [6]": {"test_system": "gastric mucosa", "assay": "Effect on gastric mucosa (2) (oral administration)", "format": "in vivo, rat (Sprague-Dawley strain)", "conditions": "rats, 4 hours", "description": "4 Hours after the administration, the rat was sacrificed with ether, and its stomach was removed. The stomach was treated with 5% formalin for 3 minutes, and gastric mucosa was observed under a stereoscopic microscope. When gastric lesion in the mucosa was found, the number of the lesion in the mucosa was counted."}, "[7]": {"assay": "Stability on storage at 50° C. and humidity of 70% for 1 month", "format": "physicochemical", "conditions": "among the compounds (I)", "description": "For example, when the compounds (I) are kept at temperature of 50° C., and humidity of 70% for 1 month, no substantial change with respect to their appearances and values of quantitative analysis was observed, and no decomposition product was detected by thin-layer chromatography. Thus compounds (I) are prepared for administration in the form of pharmaceutical compositions according to conventional methods in the field of the art, and it is possible to prepare a pharmaceutical composition which comprises a therapeutically effective amount of at least one compound of the general formula (I) as an active ingredient, i.e. anti-inflammatory composition, in solid administration form (e.g. tablets, granules, powders, capsules, suppository), and liquid administration form (e.g. suspension, emulsion). In that case, as carrier, vehicle, solvent or dispersant, there may be used any of those which are known in the field of art. There may be exemplified water, starch, lactose, crystalline cellulose, magnesium stearate, hydroxypropyl cellulose, mannitol, carboxymethyl cellulose, glycol, ethanol, corn oil, peanut oil, castor oil, cacao butter, isocacao, polyoxyethylene stearate. […]"}, "[8]": {"test_system": "gross behaviour of the rats", "assay": "Gross behaviour (2) (oral administration)", "conditions": "oral, 500, 1000, 2000 and 4000 mg/Kg, 4 hours", "protocol": "In 0.3% CMC-Na solution was suspended 2-oxo-3-[4-(1-oxo-2-isoindolinyl)phenyl]butanamide in at a concentration of 20%. The 20% CMC-Na suspension was administered orally to 3 male rats in each group (Sprague-Dawley strain) weighing 150 to 200 g. The dosage of the compound were 500, 1000, 2000 and 4000 mg/Kg. […] To rats of a control group was administered orally only 0.3% CMC-Na solution."}, "[9]": {"test_system": "gross behaviour of the mice", "assay": "Gross behaviour (1) (oral administration), Irwin's multi-dimensional observation", "conditions": "oral, 500, 1000, 2000 and 4000 mg/Kg, 4 hours", "protocol": "In 1% gum arabic solution was suspended 2-oxo-3-[4-(1-oxo-2-isoindolinyl)phenyl]butanamide at a concentration of 20%. […] The dosages of the compound were 500, 1000, 2000 and 4000 mg/Kg.\nTo mice of a control group was administered orally only 1% gum arabic solution."}, "[10]": {"conditions": "oral, 500, 1000, 2000 and 4000 mg/Kg, 7 days"}},
  "data": [
    {"smiles": "CC(C(=O)C(N)=O)c1ccc(N2Cc3ccccc3C2=O)cc1", "note": "(centres unmarked) [2-oxo-3-[4-(1-oxo-2-isoindolinyl)phenyl]butanamide]", "values": [
      {"measurement": "Increasing percent of pain threshold", "setting": "[1]; 25 mg/Kg oral, 30 minutes after administration", "value": "15.6 ± 10.3", "unit": "%"},
      {"measurement": "Increasing percent of pain threshold", "setting": "[1]; 25 mg/Kg oral, 60 minutes after administration", "value": "14.1 ± 13.7", "unit": "%"},
      {"measurement": "Increasing percent of pain threshold", "setting": "[1]; 25 mg/Kg oral, 120 minutes after administration", "value": "22.1 ± 18.5", "unit": "%"},
      {"measurement": "Increasing percent of pain threshold", "setting": "[1]; 50 mg/Kg oral, 30 minutes after administration", "value": "46.9 ± 4.6", "unit": "%"},
      {"measurement": "Increasing percent of pain threshold", "setting": "[1]; 50 mg/Kg oral, 60 minutes after administration", "value": "32.7 ± 5.9", "unit": "%"},
      {"measurement": "Increasing percent of pain threshold", "setting": "[1]; 50 mg/Kg oral, 120 minutes after administration", "value": "48.6 ± 9.0", "unit": "%"},
      {"measurement": "Increasing percent of pain threshold", "setting": "[1]; 100 mg/Kg oral, 30 minutes after administration", "value": "46.1 ± 6.6", "unit": "%"},
      {"measurement": "Increasing percent of pain threshold", "setting": "[1]; 100 mg/Kg oral, 60 minutes after administration", "value": "32.4 ± 7.0", "unit": "%"},
      {"measurement": "Increasing percent of pain threshold", "setting": "[1]; 100 mg/Kg oral, 120 minutes after administration", "value": "39.0 ± 7.3", "unit": "%"},
      {"measurement": "Increasing percent of pain threshold", "setting": "[1]; 200 mg/Kg oral, 30 minutes after administration", "value": "57.3 ± 14.8", "unit": "%"},
      {"measurement": "Increasing percent of pain threshold", "setting": "[1]; 200 mg/Kg oral, 60 minutes after administration", "value": "39.7 ± 8.9", "unit": "%"},
      {"measurement": "Increasing percent of pain threshold", "setting": "[1]; 200 mg/Kg oral, 120 minutes after administration", "value": "39.6 ± 6.5", "unit": "%"},
      {"measurement": "ED50", "setting": "[1]; Rattus norvegicus, oral, Litchfield-Wilcoxon method, from increasing percent of pain threshold", "value": 100, "unit": "mg/kg"},
      {"measurement": "Drop of febrile body temperature", "setting": "[2]", "value": 1, "unit": "°C"},
      {"measurement": "LD50 at 168 h", "setting": "[3]", "value": "> 4000", "unit": "mg/kg"},
      {"measurement": "Macroscopic observation of organs in head, thorax and abdominal cavity", "setting": "mice; after 7 days", "value": "No abnormality was observed"},
      {"measurement": "Abnormal behaviour", "setting": "mice; [10]", "value": "not observed"},
      {"measurement": "Death", "setting": "mice; [10]", "value": "not observed"},
      {"measurement": "Inhibition to increase of body weight", "setting": "mice; [10]", "value": "not observed"},
      {"measurement": "LD50 at 168 h", "setting": "[4]", "value": "> 4000", "unit": "mg/kg"},
      {"measurement": "Macroscopic observation of organs in head, thorax and abdominal cavity", "setting": "rats; after 7 days", "value": "No abnormality was observed"},
      {"measurement": "Abnormal behaviour", "setting": "rats; [10]", "value": "not observed"},
      {"measurement": "Death", "setting": "rats; [10]", "value": "not observed"},
      {"measurement": "Inhibition to increase of body weight", "setting": "rats; [10]", "value": "not observed"},
      {"measurement": "Degree of gastric damage (GD50)", "setting": "gastric mucosa [5]; 100 mg/Kg oral", "value": 1.0},
      {"measurement": "Degree of gastric damage (GD50)", "setting": "gastric mucosa [5]; 200 mg/Kg oral", "value": 7.0},
      {"measurement": "Degree of gastric damage (GD50)", "setting": "gastric mucosa [5]; 400 mg/Kg oral", "value": 2.5},
      {"measurement": "Mean number of gastric lesion", "setting": "gastric mucosa [6]; 50 mg/Kg oral", "value": 0},
      {"measurement": "Mean number of gastric lesion", "setting": "gastric mucosa [6]; 100 mg/Kg oral", "value": 0},
      {"measurement": "Mean number of gastric lesion", "setting": "gastric mucosa [6]; 200 mg/Kg oral", "value": 0.3},
      {"measurement": "Mean number of gastric lesion", "setting": "gastric mucosa [6]; 400 mg/Kg oral", "value": 1.6},
      {"measurement": "Mean number of gastric lesion", "setting": "gastric mucosa [6]; 800 mg/Kg oral", "value": 0.4},
      {"measurement": "Stability (in words)", "setting": "[7]", "value": "more stable"},
      {"measurement": "Abnormal behaviour (depression to spontaneous activity, loss of righting reflex, tremor, convulsion, abnormal gait, loss of pinna reflex, loss of corneal reflex, abnormality of respiration)", "setting": "[8]", "value": "not observed"},
      {"measurement": "Abnormal behaviour (depression to spontaneous activity, loss of righting reflex, tremor, convulsion, abnormal gait, loss of pinna reflex, loss of corneal reflex, abnormality of respiration)", "setting": "[9]", "value": "not observed"}
    ]}
  ]
}
